According to patent US5175151A, “Antiviral compounds and antihypertensive compounds” (Schering Corporation, priority 1992, dated 1992):
Converted amounts (≈) assume the structure as drawn. Where two headings read alike, the source gives them in different places. One block for each compound: values may come before it.

Columns and labels:
[1] = Compound toxicity assay: ^3 H-LEU HeLa cell translation (cytotoxicity); type: cell-based; conditions: human; HeLa cells, translational activity, overnight incubation at 37° C.; read-out: Cytotoxicity, ^3 H-LEU Assay IC50
Procedure: HeLa cells were treated with inhibitory compound for 24 hrs, after which levels of translational activity were assayed.
For assay of translational activity, HeLa cultures were grown to 80% confluency in 96 well microtiter plates, treated with appropriate concentrations of compound in 2% EMEM during an overnight incubation at 37° C., then rinsed with HBSS and overlaid with […] of 2% EMEM containing 8 uCi of tritiated leucine (^3 H-LEU, 141 Cu/mMol, Amersham Corp., Arlington Heights, Ill.). After a 1 hr incubation at 36.5° C., the cells were rinsed twice with phosphate buffered saline (PBS) and lysed in 400 ul/well of 1×PBS, 0.5% sodium dodecyl sulphate (SDS). After a 10 min incubation at 36.5° C., the contents of the well were transferred to a well in a Millititer HA microfiltration plate (Millipore Corp., Bedford, Mass.). The TCA insoluble proteins were precipitated onto the filter disc by a 10 min fixation with 5% TCA, followed by filtration over vacuum and three 10 minute rinses with 95% ethanol. The filters were dried at room temperature, cut from the milltitier plate and transferred to scintillation vials. TCA precipitable counts were assayed in 5 ml of Scintisol (Isolab, Akron, Ohio). The inhibitory activity of a compound was plotted versus the concentration and an IC50 value (that concentration of the compound required to decrease cellular translational activity by 50%) was derived for each compound.

[2] = molecular target: T1, cGMP phosphodiesterase (cGMP-PDE) (Bos taurus, UniProt Q28156); assay: Phosphodiesterase inhibition in vitro (cGMP-PDE); type: biochemical; conditions: bovine lung enzyme, 1 μM ^3 H-cGMP, pH 7.5, 25 minutes, room temperature
T1 construct: is a homogeneous enzyme obtained from bovine lung and purified by ion-exchange chromatography, gel filtration, and sucrose gradient centrifugation; from tissue; host or cells: bovine lung

HSV-2 (strain MS) = assay: HSV-β-Gal assay: transient expression of beta galactosidase in transfected HeLa cells superinfected with HSV-2 (in-vitro anti-HSV activity); type: cell-based
Procedure: HeLa and Vero cell cultures were maintained in Eagles Minimal Essential Medium which was supplemented with glutamine, penecillin, streptomycin and 10% fetal calf serum (10% EMEM). Stock cultures of HSV-2 (strain MS available from ATCC VR-540) were grown in and harvested from Vero cells. Viral stocks were titered in Vero cells according to established procedures.
Plasmid pON 245^ori- contains the promoter of the HSV-1 thymidine kinase (tk) gene located immediately 5' of the E. coli lac Z gene. In this arrangement, the tk promoter controls transcription from the bacterial gene in transient expression assays. Additionally, an SV40 polyadenylation signal is present at the 3' end of the lac Z gene to allow for the efficient translation of the mRNA in eucaryotic cells. The expression of beta galactosidase in a transient assay using pON 245^ori- is dependent upon superinfection of the transfected cells with HSV. […] For example, see U.S. application Ser. No. 07/435,491 filed Sep. 5, 1989, the disclosure of which is incorporated herein by reference thereto.
HeLa cells were seeded into 96 well microtiter plates and allowed to grow to 80% confluency (approximately 35,000 cells/well). One half microgram of plasmid pON 245^ori- DNA was introduced into the cells of each well by the […] precipitation technique (Graham and Van der Eb, 1973). Four to six hours later, the cells were rinsed with Hank's Balanced Salt Soluton (HBSS), overlaid with 10% EMEM and incubated at 37° C. At 24 hrs post-trasnfection, cells were rinsed, overlaid with 10% EMEM again and re-incubated at 37° C. At 48 hrs post-transfection, cells were rinsed and overlaid with either EMEM containing 2% fetal calf serum (2% EMEM, 2% EMEM containing HSV-2 (strain MS, Multiplicity of Infection [moi]=5 pfu/cell) or 2% EMEM containing HSV-2 and the appropriate concentration of the compound to be tested. Twenty-four hrs later, the cells were harvested and assayed to beta galactosidase activity as described below.
All determinations of beta galactosidase activity were performed in 96 well microtiter plates. The intracellular level of beta galactosidase activity in each well was determined from cell lysates of the monolayer cultures. Aliquots were assayed by incubation in the presence of beta galactosidase substrate, 4-methylumbelliferyl-β-D-galactoside (MUG, 125 ug/ml, Sigma), for 2 hrs. The generation of fluorescent product was quantified on a Microfluor microfluorimeter (Dynatech) after addition of 0.1M glycine, pH 10.3 (Spaete and Mocarski, 1985). The inhibitory activity of a compound was plotted versus the concentration and an IC50 value (the concentration of compound required to reduce beta glactosidase expression by 50%) was obtained for each compound tested.

[3] = tested on: spontaneously hypertensive rats (SHR); assay: SHR analysis: fall in mean blood pressure in conscious spontaneously hypertensive rats; type: in vivo, rat (SHR males); conditions: for SHR MBP: 25 mpk (p.o.), Table IV
Procedure: The ability of the antihypertensive compounds of the present invention to lower blood pressure can be assessed in vivo in conscious spontaneously hypertensive rats (SHR). SHR males are purchased from Taconic Farms, Germantown, N.Y. and are approximately 16-18 weeks old when anesthetized with ether. The caudal (ventral tail) artery is cannulated with polyethylene tubing (PE50) and blood pressure and heart rate are recorded as described by Baum, T. et al, J. Cardiovasc. Pharmacol. Vol. 5, pp. 665-667, (1983). Rats are placed into plastic cylindrical cages where they rapidly recover consciousness. Blood pressure and heart rate are allowed to stabilize for approximately 90 minutes prior to compound administration. Compounds are administered orally as solutions or suspensions in 0.4% aqueous methylcellulose vehicle via a feeding needle. The compound or 0.4% aqueous methylcellulose vehicle are given in a volume of 4 ml/kg to SHRs that had been fasted overnight. Activity is expressed as the fall in mean blood pressure (MBP) in millimeters of mercury (mm Hg). Compound-induced changes are compared with the changes in an appropriate placebo group.

herpes virus [4] = conditions: added to lidocaine or lidocaine hydrochloride; cited from earlier work
herpes virus [5] = conditions: cited from earlier work
HSV = conditions: cited from earlier work
HSV-2 = conditions: cited from earlier work
HSV-1 = conditions: cited from earlier work
[6] = Human alphaherpesvirus 2, HeLa cells, HSV-2 strain MS, moi 5 pfu/cell, 24 hrs, read-out: Anti-HSV Activity, HSV-β-Gal Assay IC50
[7] = Human alphaherpesvirus 2, *Repeat, HeLa cells, HSV-2 strain MS, moi 5 pfu/cell, 24 hrs, read-out: Anti-HSV Activity, HSV-β-Gal Assay IC50 (repeat)

Structure (SMILES): COc1cc(=O)c2cc(C)c(C)cc2n1Cc1ccc(O[Si](C)(C)C(C)(C)C)cc1 [Compound 8, 1-[4-(t-Butyl-Dimethylsilyloxy)] Benzyl-2-Methoxy-6,7-Dimethyl-4-(1H)-Quinolinone]
CC50 [1]: 25 µg/mL (≈ 59 µM) | IC50 (HSV-2 (strain MS); [6]): 2 µg/mL (≈ 4.72 µM)

Structure (SMILES): CCCCCCn1c(OC)c(C(=O)OCC)c(=O)c2ccccc21 [Compound 17]
IC50 [2]: 14 µM

Structure (SMILES): COc1cc(=O)c2cc(C)c(C)cc2n1Cc1ccc(O)cc1 [Compound 11]
IC50 (HSV-2 (strain MS); [6]): 10 µg/mL (≈ 32.3 µM)

Structure (SMILES): COc1cc(=O)c2ccc(OC)c(C)c2o1 [Compound 10, 2,7-Dimethoxy-8-Methyl-1,4-Benzopyrone]
CC50 [1]: > 100 µg/mL | IC50 [2]: 13 µM | IC50 (HSV-2 (strain MS); [6]): 18 µg/mL (≈ 81.7 µM)

Structure (SMILES): COc1c(Cl)c(=O)c2cc(C)ccc2n1Cc1ccccc1 [Compound 12]
CC50 [1]: 12 µg/mL (≈ 38.2 µM) | IC50 (HSV-2 (strain MS); [6]): 4 µg/mL (≈ 12.7 µM)

Structure (SMILES): CCCCCCn1c(OC)cc(=O)c2cc(C)ccc21 [Compound 16]
IC50 [2]: 0.6 µM

Structure (SMILES): CCCCCCn1c(OC)cc(=O)c2cccc(OC)c21 [Compound 7, 1-Hexyl-2,8-Dimethoxy-4(1H)-Quinolinone]
CC50 [1]: 21 µg/mL (≈ 72.6 µM) | IC50 (HSV-2 (strain MS); [7]): 8 µg/mL (≈ 27.6 µM) | IC50 (HSV-2 (strain MS); [6]): 5 µg/mL (≈ 17.3 µM)

Structure (SMILES): COc1cc(=O)c2cccc(C)c2n1C [Compound 15]
SHR MBP (fall in mean blood pressure) ([3]; 25 mpk (P.O.), Table III): 12 mm of Hg

Structure (SMILES): COc1cc(=O)c2cc(OCc3ccccc3)ccc2n1Cc1ccccc1 [R H, R1 --CH3, R2 6-OCH2 Ph, R3 --CH2 Ph]
IC50 [2]: > 100 µM

Structure (SMILES): CC(C)(CO)[C@@H](O)C(=O)NCCC(=O)O [pantothenic acid]
enhancement of antiviral activity on addition to lidocaine or lidocaine hydrochloride (herpes virus [4]): significantly enhances the antiviral activity

Structure (SMILES): CCOC(=O)c1c(OC)n(Cc2ccccc2)c2ccc(C)cc2c1=O [Compound 9, 1-Benzyl-2-Methoxy-3-Carbethoxy-6-Methyl-4-(1H)-Quinolinone]
CC50 [1]: 79 µg/mL (≈ 225 µM) | IC50 (HSV-2 (strain MS); [6]): 3 µg/mL (≈ 8.54 µM)

Structure (SMILES): CCN(CC)CC(=O)Nc1c(C)cccc1C [lidocaine, 2-(diethylamino)-N-(2,6-dimethylphenyl)acetamide]
treatment of herpes virus infections of mammals (herpes virus [5]): able to treat herpes virus infections of mammals | treatment of HSV oral and genital lesions in humans (HSV): particularly effective | antiviral agent in cell culture against HSV-2 (HSV-2): antiviral agent | antiviral agent in cell culture against HSV-1 (HSV-1): antiviral agent

Structure (SMILES): CC(C)(CO)[C@@H](O)C(=O)NCCCO [dexpanthenol]
enhancement of antiviral activity on addition to lidocaine or lidocaine hydrochloride (herpes virus [4]): significantly enhances the antiviral activity

Structure (SMILES): COc1cc(=O)c2ccc(Cl)cc2n1C [R H, R1 --CH3, R2 7-Cl, R3 --CH3]
IC50 [2]: > 100 µM | SHR MBP [3]: -7 mm of Hg

Structure (SMILES): COc1c(I)c(=O)c2ccccc2n1Cc1ccccc1 [Compound 13]
CC50 [1]: 27 µg/mL (≈ 69 µM) | IC50 (HSV-2 (strain MS); [6]): 4 µg/mL (≈ 10.2 µM)

Structure (SMILES): CCCCCCn1c(OC)cc(=O)c2cccc(C)c21 [Compound 6, 1-Hexyl-2-Methoxy-8-Methyl-4(1H)-Quinolinone]
CC50 [1]: 27 µg/mL (≈ 98.8 µM) | IC50 [2]: > 100 µM | SHR MBP [3]: -1 mm of Hg | IC50 (HSV-2 (strain MS); Human alphaherpesvirus 2, HeLa, 24 h, read-out: Anti-HSV Activity, HSV-β-Gal Assay IC50): 3 µg/mL (≈ 11 µM) | IC50 (HSV-2 (strain MS); [7]): 6 µg/mL (≈ 21.9 µM)

The next lines start with results.

IC50 [2]: 5.9 µM | IC50 (HSV-2 (strain MS); [6]): 9 µg/mL (≈ 32.9 µM)
Structure (SMILES): CCCCCCCn1c(OC)cc(=O)c2ccccc21 [Compound 5, 1-Heptyl-2-Methoxy-4(1H)-Quinolinone]
CC50 [1]: 45 µg/mL (≈ 165 µM)

IC50 [2]: 2.6 µM | IC50 (HSV-2 (strain MS); [6]): 20 µg/mL (≈ 75.4 µM)
Structure (SMILES): COc1cc(=O)c2ccccc2n1Cc1ccccc1 [Compound 4, 1-Benzyl-2-Methoxy-4(1H)-Quinolinone]
CC50 [1]: 45 µg/mL (≈ 170 µM)

IC50 [2]: > 100 µM
Structure (SMILES): COc1ccc2c(c1)c(=O)cc(OC)n2Cc1ccccc1 [R H, R1 --CH3, R2 6-OCH3, R3 --CH2 Ph]

IC50 (HSV-2 (strain MS); [6]): > 25 µg/mL
Structure (SMILES): CN(C)CCOc1cc(=O)c2ccccc2n1C [Compound 1, 1-Methyl-2-(2-Dimethylaminoethoxy)-4(1H)-Quinolinone]

IC50 (HSV-2 (strain MS); [6]): > 25 µg/mL
Structure (SMILES): Cn1c(OCCO)cc(=O)c2ccccc21 [Compound 14]

IC50 [2]: 6 µM | IC50 (HSV-2 (strain MS); [6]): 13 µg/mL (≈ 46.5 µM)
Structure (SMILES): COc1cc(=O)c2cc(C)ccc2n1Cc1ccccc1 [Compound 3, 1-Benzyl-2-Methoxy-6-Methyl-4(1H)-Quinolinone]
CC50 [1]: 85 µg/mL (≈ 304 µM)

IC50 [2]: > 100 µM
Structure (SMILES): COC(=O)Cn1c(OC)cc(=O)c2ccccc21 [R H, R1 --CH3, R2 --, R3 --CH2 CO2 CH3]
